Where two headings read alike, the source gives them in different places.
Key:
Assay in all cases: HOTSPOT radiometric kinase assay
PKG2 = target: T1, PKG2 (Homo sapiens, UniProt Q13237); type: biochemical; settings: 10 μM ATP
T1 construct: purchased Reaction Biology Corp

IRAK2 = target: T2, IRAK2 (Homo sapiens, UniProt O43187); type: biochemical; settings: 10 μM ATP
T2 construct: purchased Reaction Biology Corp

MPSK1 = target: T3, MPSK1 (Homo sapiens, UniProt O75716); type: biochemical; settings: 10 μM ATP
T3 construct: purchased Reaction Biology Corp
T3 sequence (O75716 whole entry): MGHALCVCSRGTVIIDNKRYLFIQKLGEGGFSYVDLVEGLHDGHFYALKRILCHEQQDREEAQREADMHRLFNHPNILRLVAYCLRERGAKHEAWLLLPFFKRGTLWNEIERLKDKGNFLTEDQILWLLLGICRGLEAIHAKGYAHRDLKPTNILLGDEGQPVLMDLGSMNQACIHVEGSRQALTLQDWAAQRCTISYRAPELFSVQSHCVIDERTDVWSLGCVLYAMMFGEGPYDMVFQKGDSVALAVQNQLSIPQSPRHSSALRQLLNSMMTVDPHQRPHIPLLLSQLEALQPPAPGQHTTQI

STK33 = target: T4, STK33 (Homo sapiens, UniProt Q9BYT3); type: biochemical; settings: 10 μM ATP
T4 construct: purchased Reaction Biology Corp

MSK2 = target: T5, MSK2 (Homo sapiens, UniProt O75676); type: biochemical; settings: 10 μM ATP
T5 construct: purchased Reaction Biology Corp
T5 sequence (O75676 whole entry): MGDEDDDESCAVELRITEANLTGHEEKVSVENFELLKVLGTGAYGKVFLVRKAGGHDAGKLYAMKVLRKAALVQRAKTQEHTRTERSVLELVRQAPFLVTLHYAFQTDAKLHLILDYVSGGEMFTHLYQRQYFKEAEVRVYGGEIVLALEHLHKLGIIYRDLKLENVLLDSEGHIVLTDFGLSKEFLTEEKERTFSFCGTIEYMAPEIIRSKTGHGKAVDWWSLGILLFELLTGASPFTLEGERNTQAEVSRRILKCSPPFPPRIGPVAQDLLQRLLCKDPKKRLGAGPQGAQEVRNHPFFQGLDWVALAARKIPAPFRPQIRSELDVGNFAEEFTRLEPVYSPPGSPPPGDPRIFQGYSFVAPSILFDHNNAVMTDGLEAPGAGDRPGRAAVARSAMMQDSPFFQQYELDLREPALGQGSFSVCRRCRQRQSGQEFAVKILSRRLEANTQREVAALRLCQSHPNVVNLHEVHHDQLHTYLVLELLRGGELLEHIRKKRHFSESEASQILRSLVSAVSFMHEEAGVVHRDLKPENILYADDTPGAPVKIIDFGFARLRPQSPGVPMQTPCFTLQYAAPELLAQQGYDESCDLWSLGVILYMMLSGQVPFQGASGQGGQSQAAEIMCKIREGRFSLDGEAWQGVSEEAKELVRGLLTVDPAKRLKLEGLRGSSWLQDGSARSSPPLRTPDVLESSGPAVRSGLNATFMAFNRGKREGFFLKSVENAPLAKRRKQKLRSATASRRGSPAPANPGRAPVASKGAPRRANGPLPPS

CLK4 = target: T6, CLK4 (Homo sapiens, UniProt Q9HAZ1); type: biochemical
T6 construct: purchased Reaction Biology Corp
T6 sequence (Q9HAZ1 whole entry): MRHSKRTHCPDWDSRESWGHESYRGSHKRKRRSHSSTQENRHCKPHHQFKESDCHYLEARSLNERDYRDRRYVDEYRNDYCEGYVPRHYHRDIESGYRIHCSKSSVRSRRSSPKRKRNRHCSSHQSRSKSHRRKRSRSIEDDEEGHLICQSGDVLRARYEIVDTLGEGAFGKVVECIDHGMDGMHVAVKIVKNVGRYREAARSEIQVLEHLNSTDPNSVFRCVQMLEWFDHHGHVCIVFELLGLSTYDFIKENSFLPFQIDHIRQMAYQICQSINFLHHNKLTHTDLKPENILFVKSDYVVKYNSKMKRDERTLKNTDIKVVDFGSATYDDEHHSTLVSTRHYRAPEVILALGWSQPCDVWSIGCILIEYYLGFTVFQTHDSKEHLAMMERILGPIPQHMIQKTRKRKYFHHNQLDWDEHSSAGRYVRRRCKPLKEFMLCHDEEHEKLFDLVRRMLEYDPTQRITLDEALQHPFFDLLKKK

CLK3 = target: T7, CLK3 (Homo sapiens, UniProt P49761); type: biochemical; settings: 10 μM ATP
T7 construct: purchased Reaction Biology Corp. (Malvern, PA, USA)

PKCv/PKD3 = target: T8, PKCv/PKD3 (Homo sapiens, UniProt O94806); type: biochemical
T8 construct: purchased Reaction Biology Corp
T8 sequence (O94806 1-890): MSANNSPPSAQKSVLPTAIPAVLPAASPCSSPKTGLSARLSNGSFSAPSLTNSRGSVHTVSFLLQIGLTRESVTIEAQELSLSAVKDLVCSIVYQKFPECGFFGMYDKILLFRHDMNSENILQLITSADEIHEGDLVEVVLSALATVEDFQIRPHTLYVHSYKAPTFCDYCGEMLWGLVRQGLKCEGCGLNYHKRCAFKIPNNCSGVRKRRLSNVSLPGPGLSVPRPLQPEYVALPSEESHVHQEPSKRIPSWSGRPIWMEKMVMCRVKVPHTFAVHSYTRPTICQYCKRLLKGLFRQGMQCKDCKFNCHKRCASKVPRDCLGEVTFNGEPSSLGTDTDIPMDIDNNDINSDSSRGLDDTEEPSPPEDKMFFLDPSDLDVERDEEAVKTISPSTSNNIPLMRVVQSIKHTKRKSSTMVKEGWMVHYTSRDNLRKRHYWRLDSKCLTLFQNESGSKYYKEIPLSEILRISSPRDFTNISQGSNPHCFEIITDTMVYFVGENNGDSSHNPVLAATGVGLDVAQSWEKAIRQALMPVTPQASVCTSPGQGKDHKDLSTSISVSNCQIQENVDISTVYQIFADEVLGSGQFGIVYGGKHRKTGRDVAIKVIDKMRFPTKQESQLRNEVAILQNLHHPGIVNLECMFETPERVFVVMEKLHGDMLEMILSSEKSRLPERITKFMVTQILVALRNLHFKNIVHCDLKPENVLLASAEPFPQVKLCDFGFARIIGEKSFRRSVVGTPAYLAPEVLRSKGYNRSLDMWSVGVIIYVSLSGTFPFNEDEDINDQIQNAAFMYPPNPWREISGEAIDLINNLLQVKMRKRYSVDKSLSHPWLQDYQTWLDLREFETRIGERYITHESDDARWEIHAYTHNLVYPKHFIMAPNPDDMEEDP

BMX = target: T9, BMX (Homo sapiens, UniProt P51813); type: biochemical; settings: 10 μM ATP
T9 construct: purchased Reaction Biology Corp
T9 sequence (P51813 whole entry): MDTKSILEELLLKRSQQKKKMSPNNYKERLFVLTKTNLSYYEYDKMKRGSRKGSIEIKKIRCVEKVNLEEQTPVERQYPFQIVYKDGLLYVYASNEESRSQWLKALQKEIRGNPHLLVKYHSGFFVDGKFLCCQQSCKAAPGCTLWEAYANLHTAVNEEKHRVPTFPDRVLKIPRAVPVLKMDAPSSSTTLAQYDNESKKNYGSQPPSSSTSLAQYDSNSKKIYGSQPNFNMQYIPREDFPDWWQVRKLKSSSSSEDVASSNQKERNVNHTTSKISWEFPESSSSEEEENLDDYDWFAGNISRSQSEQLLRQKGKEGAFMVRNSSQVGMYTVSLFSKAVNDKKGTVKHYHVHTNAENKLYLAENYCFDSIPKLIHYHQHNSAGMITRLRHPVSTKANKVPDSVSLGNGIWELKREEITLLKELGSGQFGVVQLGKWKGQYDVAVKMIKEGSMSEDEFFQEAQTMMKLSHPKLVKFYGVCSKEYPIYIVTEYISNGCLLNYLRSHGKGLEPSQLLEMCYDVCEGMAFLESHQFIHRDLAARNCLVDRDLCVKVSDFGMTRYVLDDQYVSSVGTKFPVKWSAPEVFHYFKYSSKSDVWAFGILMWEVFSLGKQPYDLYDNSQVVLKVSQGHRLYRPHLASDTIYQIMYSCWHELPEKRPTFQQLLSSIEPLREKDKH

GSK3β = GSK3β (Homo sapiens, UniProt P49841)
Chain of GSK3β (P49841 whole entry): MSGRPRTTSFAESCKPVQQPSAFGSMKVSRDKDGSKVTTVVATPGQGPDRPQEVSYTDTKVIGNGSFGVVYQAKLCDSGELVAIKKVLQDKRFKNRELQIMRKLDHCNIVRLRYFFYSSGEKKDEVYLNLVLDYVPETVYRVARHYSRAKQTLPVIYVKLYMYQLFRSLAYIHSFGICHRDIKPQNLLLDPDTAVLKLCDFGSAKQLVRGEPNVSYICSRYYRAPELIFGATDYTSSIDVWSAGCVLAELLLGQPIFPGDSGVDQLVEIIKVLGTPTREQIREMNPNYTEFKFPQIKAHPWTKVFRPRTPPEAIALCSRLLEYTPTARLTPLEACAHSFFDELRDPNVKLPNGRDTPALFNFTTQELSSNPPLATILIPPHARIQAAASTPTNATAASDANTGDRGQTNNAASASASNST

PKN1 = target: T10, PKN1 (Homo sapiens, UniProt Q16512); type: biochemical; settings: 10 μM ATP
T10 construct: purchased Reaction Biology Corp

PKCγ = target: T11, PKCγ (Homo sapiens, UniProt P05129); type: biochemical
T11 construct: purchased Reaction Biology Corp

CAMK1δ = CAMK1δ (Homo sapiens, UniProt Q8IU85)
DYRK2 = target: T12, DYRK2 (Homo sapiens, UniProt Q92630); type: biochemical
T12 construct: purchased Reaction Biology Corp
T12 sequence (Q92630 1-601): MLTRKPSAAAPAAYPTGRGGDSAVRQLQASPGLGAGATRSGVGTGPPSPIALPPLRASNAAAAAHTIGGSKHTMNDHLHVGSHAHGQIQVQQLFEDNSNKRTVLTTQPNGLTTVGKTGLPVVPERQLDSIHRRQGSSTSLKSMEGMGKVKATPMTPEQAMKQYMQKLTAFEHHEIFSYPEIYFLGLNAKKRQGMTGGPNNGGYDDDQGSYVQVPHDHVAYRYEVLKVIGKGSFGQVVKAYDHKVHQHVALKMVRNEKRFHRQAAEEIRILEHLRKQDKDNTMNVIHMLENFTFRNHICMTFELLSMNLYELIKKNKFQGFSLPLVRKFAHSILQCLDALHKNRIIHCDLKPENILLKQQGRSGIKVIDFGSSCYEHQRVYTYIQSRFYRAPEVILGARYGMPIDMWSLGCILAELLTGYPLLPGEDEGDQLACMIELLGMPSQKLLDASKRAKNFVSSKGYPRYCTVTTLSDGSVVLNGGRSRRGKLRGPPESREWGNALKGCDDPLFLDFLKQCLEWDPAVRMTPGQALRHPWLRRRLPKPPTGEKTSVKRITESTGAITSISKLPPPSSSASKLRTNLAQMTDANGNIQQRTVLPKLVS

DCAMKL1 = target: T13, DCAMKL1 (Homo sapiens, UniProt O15075); type: biochemical; settings: 10 μM ATP
T13 construct: purchased Reaction Biology Corp
T13 sequence (O15075 whole entry): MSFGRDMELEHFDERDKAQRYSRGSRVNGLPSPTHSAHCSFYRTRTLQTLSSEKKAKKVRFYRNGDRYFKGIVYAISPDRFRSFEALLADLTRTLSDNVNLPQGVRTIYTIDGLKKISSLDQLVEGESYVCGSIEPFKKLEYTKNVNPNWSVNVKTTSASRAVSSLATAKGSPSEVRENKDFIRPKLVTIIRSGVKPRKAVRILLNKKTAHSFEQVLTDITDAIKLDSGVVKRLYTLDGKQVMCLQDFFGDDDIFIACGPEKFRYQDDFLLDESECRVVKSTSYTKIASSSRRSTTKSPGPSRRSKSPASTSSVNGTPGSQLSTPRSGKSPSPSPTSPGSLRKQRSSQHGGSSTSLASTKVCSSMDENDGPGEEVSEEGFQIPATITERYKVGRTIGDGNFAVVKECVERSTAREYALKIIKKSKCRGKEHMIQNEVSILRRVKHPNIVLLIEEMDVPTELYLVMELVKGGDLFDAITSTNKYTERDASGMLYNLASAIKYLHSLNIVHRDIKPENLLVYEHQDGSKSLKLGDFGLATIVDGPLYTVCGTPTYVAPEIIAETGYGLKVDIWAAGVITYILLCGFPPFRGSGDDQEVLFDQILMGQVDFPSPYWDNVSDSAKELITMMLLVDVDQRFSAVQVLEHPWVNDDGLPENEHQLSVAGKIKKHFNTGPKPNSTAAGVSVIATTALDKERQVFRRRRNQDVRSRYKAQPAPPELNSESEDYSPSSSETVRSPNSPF

T2 sequence (O43187 whole entry): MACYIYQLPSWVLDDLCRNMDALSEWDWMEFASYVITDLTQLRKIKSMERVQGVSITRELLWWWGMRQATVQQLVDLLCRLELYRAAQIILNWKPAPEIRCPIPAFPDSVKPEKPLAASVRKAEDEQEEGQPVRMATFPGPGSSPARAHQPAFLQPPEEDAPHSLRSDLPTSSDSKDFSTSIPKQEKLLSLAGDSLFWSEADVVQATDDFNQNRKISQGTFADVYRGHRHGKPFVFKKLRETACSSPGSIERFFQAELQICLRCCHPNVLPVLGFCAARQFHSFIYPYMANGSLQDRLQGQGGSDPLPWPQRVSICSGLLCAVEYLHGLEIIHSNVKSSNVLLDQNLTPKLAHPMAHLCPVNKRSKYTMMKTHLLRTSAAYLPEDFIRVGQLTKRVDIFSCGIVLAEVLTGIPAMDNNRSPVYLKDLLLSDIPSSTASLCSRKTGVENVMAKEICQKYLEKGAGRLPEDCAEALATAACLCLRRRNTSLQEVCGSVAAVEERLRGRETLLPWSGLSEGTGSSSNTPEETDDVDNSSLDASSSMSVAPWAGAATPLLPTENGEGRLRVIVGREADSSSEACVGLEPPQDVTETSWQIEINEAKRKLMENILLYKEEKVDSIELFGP

**Q.** What does the source list for `Cn1cncc1C1=CN(c2ncnc3nc[nH]c23)CCS1` [Compound 1, Aplithianine A]?
**A.** inhibition at 2 µM (PKG2): 99.4%; inhibition at 0.05 µM (IRAK2; 50 nM): 30.7%; inhibition at 2 µM (IRAK2; 2 μM): 85%; inhibition at 0.05 µM (MPSK1; 50 nM): 22%; inhibition at 2 µM (MPSK1; 2 μM): 49.5%; inhibition at 0.05 µM (STK33; 50 nM): 23.6%; inhibition at 2 µM (STK33; 2 μM): 80.5%; inhibition at 0.05 µM (MSK2; 50 nM): 13.3%; inhibition at 2 µM (MSK2; 2 μM): 75.5%; inhibition at 0.05 µM (CLK4; 50 nM, 10 μM ATP): 27.1%; inhibition at 2 µM (CLK4; 2 μM, 10 μM ATP): 84.7%; IC50 (CLK4; 10 μM ATP, read-out: CLK4 IC50): 0.153 µM; CLK4 Differential (as compared to PKG1a) (CLK4; IC50 (kinase)/IC50 (PKG1a)): 13.49; IC50 (CLK4; Table 4 dose-response, read-out: CLK4 IC50 Values): 0.154 µM; IC50 (CLK3): 14.1 µM; inhibition at 0.05 µM (PKCv/PKD3; 50 nM, 10 μM ATP): 25%; inhibition at 2 µM (PKCv/PKD3; 2 μM, 10 μM ATP): 88.9%; IC50 (PKCv/PKD3; 10 μM ATP, read-out: PKCv/PKD3 IC50): 0.13 µM; PKCnu Differential (as compared to PKG1a) (PKCv/PKD3; IC50 (kinase)/IC50 (PKG1a)): 11.92; IC50 (PKCv/PKD3; Table 4 dose-response, read-out: PKCnu IC50 Values): 0.136 µM; inhibition at 0.05 µM (BMX; 50 nM): 13.9%; inhibition at 2 µM (BMX; 2 μM): 40%; IC50 (GSK3β): 0.043 to 0.189 µM; IC50 (GSK3β; read-out: GSK3β IC50, 10 μM ATP): 0.099 µM; inhibition at 0.05 µM (PKN1; 50 nM): 18.8%; inhibition at 2 µM (PKN1; 2 μM): 87.7%; inhibition at 0.05 µM (PKCγ; 50 nM, 10 μM ATP): 30.5%; inhibition at 2 µM (PKCγ; 2 μM, 10 μM ATP): 92.8%; IC50 (PKCγ; 10 μM ATP, read-out: PKCγ IC50): 0.234 µM; PKCg Differential (as compared to PKG1a) (PKCγ; IC50 (kinase)/IC50 (PKG1a)): 13.99; IC50 (PKCγ; Table 4 dose-response, read-out: PKCg IC50 Values): 0.159 µM; IC50 (CAMK1δ): 18 to 65 µM; IC50 (CAMK1δ; read-out: CAMK1δ IC50, 10 μM ATP): 52.3 µM; inhibition at 0.05 µM (DYRK2; 50 nM, 10 μM ATP): 20.6%; inhibition at 2 µM (DYRK2; 2 μM, 10 μM ATP): 91.2%; IC50 (DYRK2; 10 μM ATP, read-out: DYRK2 IC50): 0.142 µM; DYRK2 Differential (as compared to PKG1a) (DYRK2; IC50 (kinase)/IC50 (PKG1a)): 13.27; IC50 (DYRK2; Table 4 dose-response, read-out: DYRK2 IC50 Values): 0.151 µM; inhibition at 0.05 µM (DCAMKL1; 50 nM): 12.8%; inhibition at 2 µM (DCAMKL1; 2 μM): 14.2%

From patent publication US20260184713A1, “KINASE INHIBITORS” (The United States of America, as represented by the …, priority 2022, published 2026)
